How the values were obtained:
[1] = molecular target: T1, Alpha-2C adrenergic receptor (Homo sapiens, UniProt P18825); assay: DRUGMATRIX: Adrenergic Alpha-2C radioligand binding (ligand: [3H] MK-912); type: cell membranes, Sf9, Membrane
T1 sequence (P18825 whole entry): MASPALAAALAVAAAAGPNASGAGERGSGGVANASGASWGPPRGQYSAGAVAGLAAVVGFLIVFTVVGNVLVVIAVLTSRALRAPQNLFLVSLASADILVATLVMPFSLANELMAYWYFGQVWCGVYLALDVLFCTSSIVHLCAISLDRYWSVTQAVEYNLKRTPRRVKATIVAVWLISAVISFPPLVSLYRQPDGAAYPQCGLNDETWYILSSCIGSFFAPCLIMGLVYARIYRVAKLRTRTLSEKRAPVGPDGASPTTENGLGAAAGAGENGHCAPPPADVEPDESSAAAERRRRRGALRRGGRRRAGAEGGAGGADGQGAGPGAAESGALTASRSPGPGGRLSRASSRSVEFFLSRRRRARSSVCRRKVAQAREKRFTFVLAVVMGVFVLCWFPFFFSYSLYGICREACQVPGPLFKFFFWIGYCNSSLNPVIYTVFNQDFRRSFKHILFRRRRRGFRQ

[2] = molecular target: Beta-2 adrenergic receptor (Homo sapiens, UniProt P07550); assay: DRUGMATRIX: Adrenergic beta2 radioligand binding (ligand: [3H] CGP-12177); type: cell membranes, CHO, Membrane; details: cho; Not Active = under 50% inhibition at 10 µM
Substance-P receptor = Substance-P receptor (Homo sapiens, UniProt P25103); type: cell membranes, CHO, Membrane; further: in other assays of this panel Not Active means under 50% inhibition at 10 µM
[3] = molecular target: C-C chemokine receptor type 5 (Homo sapiens, UniProt P51681); type: cell membranes, Membrane; details: hek293; further: in other assays of this panel Not Active means under 50% inhibition at 10 µM
Interstitial collagenase = molecular target: T2, Interstitial collagenase (Homo sapiens, UniProt P03956); assay: biochemical; type: tissue-based, Rheumatoid synovial fibroblasts;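 further: MMP-1 enzyme inhibition assay using a peptide substrate; in other assays of this panel Not Active means under 50% inhibition at 10 µM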
T2 sequence (P03956 whole entry): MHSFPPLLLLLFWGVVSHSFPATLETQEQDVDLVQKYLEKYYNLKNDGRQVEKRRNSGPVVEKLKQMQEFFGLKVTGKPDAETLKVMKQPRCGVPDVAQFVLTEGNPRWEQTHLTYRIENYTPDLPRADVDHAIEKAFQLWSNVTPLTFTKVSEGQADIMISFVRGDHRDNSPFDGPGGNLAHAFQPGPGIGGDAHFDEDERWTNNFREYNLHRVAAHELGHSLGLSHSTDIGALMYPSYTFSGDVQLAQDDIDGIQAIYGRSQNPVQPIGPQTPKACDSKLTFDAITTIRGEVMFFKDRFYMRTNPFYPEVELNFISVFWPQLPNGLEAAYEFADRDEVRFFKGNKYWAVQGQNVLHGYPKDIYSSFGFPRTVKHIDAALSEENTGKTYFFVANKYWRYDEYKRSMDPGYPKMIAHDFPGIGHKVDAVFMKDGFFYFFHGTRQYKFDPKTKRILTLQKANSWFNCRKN

[4] = molecular target: T3, 5-hydroxytryptamine receptor 1A (Rattus norvegicus, UniProt P19327); type: cell membranes, CHO-K1, Membrane; further: in other assays of this panel Not Active means under 50% inhibition at 10 µM
T3 sequence (P19327 whole entry): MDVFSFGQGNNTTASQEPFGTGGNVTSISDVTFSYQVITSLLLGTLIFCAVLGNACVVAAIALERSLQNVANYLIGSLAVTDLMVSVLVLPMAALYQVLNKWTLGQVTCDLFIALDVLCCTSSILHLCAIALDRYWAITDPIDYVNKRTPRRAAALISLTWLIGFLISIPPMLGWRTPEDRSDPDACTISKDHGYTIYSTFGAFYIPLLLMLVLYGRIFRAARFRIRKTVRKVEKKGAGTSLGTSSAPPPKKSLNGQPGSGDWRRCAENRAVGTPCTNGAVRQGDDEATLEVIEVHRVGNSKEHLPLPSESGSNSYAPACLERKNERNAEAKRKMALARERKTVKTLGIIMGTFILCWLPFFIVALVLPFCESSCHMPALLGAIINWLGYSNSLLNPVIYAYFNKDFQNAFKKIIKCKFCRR

Chain of C-C chemokine receptor type 5 (P51681 whole entry): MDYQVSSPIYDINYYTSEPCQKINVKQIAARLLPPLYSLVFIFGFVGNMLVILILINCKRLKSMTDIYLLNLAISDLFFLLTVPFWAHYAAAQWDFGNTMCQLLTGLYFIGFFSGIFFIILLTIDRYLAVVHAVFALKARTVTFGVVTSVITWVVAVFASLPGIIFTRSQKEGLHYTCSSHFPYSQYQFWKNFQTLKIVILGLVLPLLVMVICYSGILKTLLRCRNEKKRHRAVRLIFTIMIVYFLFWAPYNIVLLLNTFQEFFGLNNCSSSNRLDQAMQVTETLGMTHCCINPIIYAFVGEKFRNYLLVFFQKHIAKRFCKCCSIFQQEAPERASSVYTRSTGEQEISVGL
Chain of Substance-P receptor (P25103 whole entry): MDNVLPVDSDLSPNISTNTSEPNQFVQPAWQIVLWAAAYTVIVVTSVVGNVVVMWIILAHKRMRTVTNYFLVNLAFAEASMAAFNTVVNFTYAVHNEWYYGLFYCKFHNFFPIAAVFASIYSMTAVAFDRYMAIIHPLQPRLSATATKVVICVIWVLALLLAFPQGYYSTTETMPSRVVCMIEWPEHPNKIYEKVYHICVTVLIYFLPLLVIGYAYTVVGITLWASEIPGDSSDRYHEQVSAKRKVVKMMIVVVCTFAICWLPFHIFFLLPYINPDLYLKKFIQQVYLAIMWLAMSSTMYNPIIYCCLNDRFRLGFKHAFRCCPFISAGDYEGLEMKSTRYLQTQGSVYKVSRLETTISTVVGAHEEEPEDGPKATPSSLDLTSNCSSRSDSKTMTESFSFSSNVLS
Chain of Beta-2 adrenergic receptor (P07550 whole entry): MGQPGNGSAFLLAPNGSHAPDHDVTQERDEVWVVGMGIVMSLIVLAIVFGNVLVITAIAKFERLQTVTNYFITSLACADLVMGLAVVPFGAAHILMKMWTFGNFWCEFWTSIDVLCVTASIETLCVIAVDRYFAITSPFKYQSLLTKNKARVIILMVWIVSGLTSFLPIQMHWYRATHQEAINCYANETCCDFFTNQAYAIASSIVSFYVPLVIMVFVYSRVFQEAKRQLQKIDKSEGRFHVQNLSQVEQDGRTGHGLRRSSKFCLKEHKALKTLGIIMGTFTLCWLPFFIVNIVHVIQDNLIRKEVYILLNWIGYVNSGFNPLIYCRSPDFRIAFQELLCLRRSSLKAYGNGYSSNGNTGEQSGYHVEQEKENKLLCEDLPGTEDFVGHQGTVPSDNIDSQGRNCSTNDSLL

Row | SMILES | IC50 ([1]; sf9) | IC50 [2] | IC50 (Substance-P receptor; cho) | IC50 [3] | IC50 (Interstitial collagenase) | IC50 ([4]; cho-k1) | IC50 (Substance-P receptor; read-out: IC50) [µM] | Ki (Substance-P receptor; read-out: Ki) [µM] | IC50 ([4]; read-out: IC50) [µM] | Ki ([4]; read-out: Ki) [µM] | IC50 ([1]; read-out: IC50) [µM] | Ki ([1]; read-out: Ki) [µM] | Ki [2]
1 | O.O.O.O.O.O.[Cl-].[Cl-].[Sr+2] [STRONTIUM CHLORIDE HEXAHYDRATE] | Not Active | Not Active | Not Active | Not Active | Not Active | Not Active | – | – | – | – | – | – | –
2 | CNC1(c2ccccc2Cl)CCCCC1=O (stereo unspecified) [KETAMINE] | Not Active | Not Active | Not Active | Not Active | Not Active | Not Active | – | – | – | – | – | – | –
3 | CCN(CC)CC(=O)Nc1c(C)cccc1C [LIDOCAINE] | Not Active | Not Active | Not Active | Not Active | Not Active | Not Active | – | – | – | – | – | – | –
4 | Nc1cc(N2CCCCC2)nc(N)[n+]1[O-] [MINOXIDIL] | Not Active | Not Active | Not Active | Not Active | Not Active | Not Active | – | – | – | – | – | – | –
5 | CNCCC(Oc1ccc(C(F)(F)F)cc1)c1ccccc1 (stereo unspecified) [FLUOXETINE] | Not Active | Not Active | Not Active | Not Active | Not Active | Not Active | – | – | – | – | – | – | –
6 | COc1c2occc2cc2ccc(=O)oc12 [METHOXSALEN] | Not Active | Not Active | Not Active | Not Active | Not Active | Not Active | – | – | – | – | – | – | –
7 | Cc1c(C)c2c(c(C)c1O)CCC(C)(CN1CCN(c3cc(N4CCCC4)nc(N4CCCC4)n3)CC1)O2 (stereo unspecified) | Not Active | Not Active | Not Active | Not Active | Not Active | Not Active | – | – | – | – | – | – | –
8 | CS(=O)(=O)c1ccc([C@@H](O)[C@@H](CO)NC(=O)C(Cl)Cl)cc1 [THIAMPHENICOL] | Not Active | Not Active | Not Active | Not Active | Not Active | Not Active | – | – | – | – | – | – | –
9 | Cc1ccc(NC(=O)c2ccc(CN3CCN(C)CC3)cc2)cc1Nc1nccc(-c2cccnc2)n1 [IMATINIB] | Not Active | Not Active | Not Active | Not Active | Not Active | Not Active | – | – | – | – | – | – | –
10 | Clc1ccc(COC(Cn2ccnc2)c2ccc(Cl)cc2Cl)cc1 (stereo unspecified) [ECONAZOLE] | Not Active | Not Active | – | Not Active | Not Active | – | 11.9 | 6.48 | 16.2 | 9.24 | – | – | –
11 | Clc1ccccc1CN1CCc2sccc2C1 [TICLOPIDINE] | – | Not Active | Not Active | Not Active | Not Active | Not Active | – | – | – | – | 1.17 | 0.171 | –
12 | CC(C)Oc1ccc2c(=O)c(-c3ccccc3)coc2c1 [IPRIFLAVONE] | Not Active | – | Not Active | Not Active | Not Active | Not Active | – | – | – | – | – | – | Not Active
13 | CCN1CCC[C@H]1CNC(=O)c1cc(S(N)(=O)=O)ccc1OC [LEVOSULPIRIDE] | Not Active | Not Active | Not Active | Not Active | Not Active | Not Active | – | – | – | – | – | – | –

Reference: ChEMBL document CHEMBL1909046, “DrugMatrix in vitro pharmacology data”
